Test system: Escherichia coli wild strain (W3110)
Assay: Growth of Escherichia coli in M9 medium, absorbance (OD600) measured every hour
Assay type: cell-based
Details: 1 mM xanthurenic acid in M9 medium (Tris-HCl buffer pH 8), compared with Comparative Example 1 (no xanthurenic acid), FIG. 1
Experimental: An Escherichia coli wild strain (W3110) was cultured in M9 medium (7 mg/ml K2HPO4, 3 mg/ml KH2PO4, 0.5 mg/ml NaCl, 1 mg/ml NH4Cl, 1 mg/ml glucose, 1 mM MgSO4.7H2O, 14.7 μg/ml CaCl2)) containing 10 μg/ml thiamine. In preparing the medium, a Tris-HCl buffer solution (pH 8) was used instead of water in consideration of the solubility of xanthurenic acid. The obtained overnight cultures were diluted into 0.8% with 20 ml of a fresh medium containing 1 mM xanthurenic acid (Wako Pure Chemical Industries, Ltd.) to obtain a sample solution. Absorbance (OD600) was measured as to this sample solution every hour by using Nano Photometer (Implen GmbH).
The preparation and measurement of a sample solution were performed in the same way as in Example 1 except that the overnight cultures were diluted with a fresh medium containing no xanthurenic acid.

## O=C(O)c1cc(O)c2cccc(O)c2n1 [Example 1, xanthurenic acid]
  absorbance (OD600); proliferation of Escherichia coli: proliferation of Escherichia coli was inhibited

From patent US20200000091A1, “Microbe Proliferation Inhibitor, Method for Inhibiting Proliferation of Microbes, UV Resistance-Improving Agent, Method for Improving UV Resistance, Artificial Protein Formation Body and method for Manufacturing Same, Artificial Protein Solution, and Coloring Agent” (Keio University, priority 2017, published 2020)
